In ChEMBL document CHEMBL3991601, “The target landscape of clinical kinase drugs” (Science, 2017):
Counter-ions that a name gives are not always drawn. Activity calls are given as the source filed them.

Columns and labels:
[1] = molecular target: T1, Long-chain-fatty-acid--CoA ligase 5 (Homo sapiens, UniProt Q9ULC5)
T1 sequence (Q9ULC5 whole entry): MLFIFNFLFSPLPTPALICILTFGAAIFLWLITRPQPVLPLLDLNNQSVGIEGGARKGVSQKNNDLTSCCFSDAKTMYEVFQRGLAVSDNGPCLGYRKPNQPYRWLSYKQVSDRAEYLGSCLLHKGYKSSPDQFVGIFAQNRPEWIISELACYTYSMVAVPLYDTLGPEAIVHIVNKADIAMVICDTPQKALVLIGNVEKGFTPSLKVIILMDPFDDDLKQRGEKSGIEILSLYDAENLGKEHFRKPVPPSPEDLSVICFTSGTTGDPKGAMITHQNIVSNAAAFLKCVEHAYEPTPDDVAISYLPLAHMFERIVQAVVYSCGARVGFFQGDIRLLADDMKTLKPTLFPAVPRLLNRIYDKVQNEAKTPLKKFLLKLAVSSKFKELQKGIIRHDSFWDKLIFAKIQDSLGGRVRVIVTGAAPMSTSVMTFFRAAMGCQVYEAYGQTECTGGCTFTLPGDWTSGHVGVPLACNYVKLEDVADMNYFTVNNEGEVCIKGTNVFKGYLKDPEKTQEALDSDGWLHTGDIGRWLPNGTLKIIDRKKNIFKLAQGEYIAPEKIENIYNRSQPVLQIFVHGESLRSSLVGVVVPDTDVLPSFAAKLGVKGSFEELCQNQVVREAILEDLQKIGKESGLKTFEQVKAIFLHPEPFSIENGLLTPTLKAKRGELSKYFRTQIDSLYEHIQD

[2] = molecular target: T2, Protein kinase C zeta type (Homo sapiens, UniProt Q05513)
T2 sequence (Q05513 whole entry): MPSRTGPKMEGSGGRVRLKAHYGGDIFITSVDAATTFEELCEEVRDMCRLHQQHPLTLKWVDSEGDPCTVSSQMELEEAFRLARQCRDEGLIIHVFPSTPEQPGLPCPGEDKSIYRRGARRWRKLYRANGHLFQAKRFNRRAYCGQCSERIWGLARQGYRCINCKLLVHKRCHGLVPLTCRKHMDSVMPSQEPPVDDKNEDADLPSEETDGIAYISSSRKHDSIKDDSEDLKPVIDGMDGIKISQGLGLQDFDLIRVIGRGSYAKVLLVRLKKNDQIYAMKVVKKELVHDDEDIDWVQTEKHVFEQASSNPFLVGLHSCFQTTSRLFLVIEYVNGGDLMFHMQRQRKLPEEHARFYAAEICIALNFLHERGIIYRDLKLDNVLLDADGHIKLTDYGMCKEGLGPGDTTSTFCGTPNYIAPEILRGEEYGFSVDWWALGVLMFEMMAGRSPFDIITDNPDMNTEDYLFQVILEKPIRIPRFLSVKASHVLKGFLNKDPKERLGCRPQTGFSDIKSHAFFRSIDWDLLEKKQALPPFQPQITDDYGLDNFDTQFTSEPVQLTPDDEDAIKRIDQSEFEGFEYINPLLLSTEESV

[3] = molecular target: T3, Isoleucine--tRNA ligase, mitochondrial (Homo sapiens, UniProt Q9NSE4)
T3 sequence (Q9NSE4 whole entry): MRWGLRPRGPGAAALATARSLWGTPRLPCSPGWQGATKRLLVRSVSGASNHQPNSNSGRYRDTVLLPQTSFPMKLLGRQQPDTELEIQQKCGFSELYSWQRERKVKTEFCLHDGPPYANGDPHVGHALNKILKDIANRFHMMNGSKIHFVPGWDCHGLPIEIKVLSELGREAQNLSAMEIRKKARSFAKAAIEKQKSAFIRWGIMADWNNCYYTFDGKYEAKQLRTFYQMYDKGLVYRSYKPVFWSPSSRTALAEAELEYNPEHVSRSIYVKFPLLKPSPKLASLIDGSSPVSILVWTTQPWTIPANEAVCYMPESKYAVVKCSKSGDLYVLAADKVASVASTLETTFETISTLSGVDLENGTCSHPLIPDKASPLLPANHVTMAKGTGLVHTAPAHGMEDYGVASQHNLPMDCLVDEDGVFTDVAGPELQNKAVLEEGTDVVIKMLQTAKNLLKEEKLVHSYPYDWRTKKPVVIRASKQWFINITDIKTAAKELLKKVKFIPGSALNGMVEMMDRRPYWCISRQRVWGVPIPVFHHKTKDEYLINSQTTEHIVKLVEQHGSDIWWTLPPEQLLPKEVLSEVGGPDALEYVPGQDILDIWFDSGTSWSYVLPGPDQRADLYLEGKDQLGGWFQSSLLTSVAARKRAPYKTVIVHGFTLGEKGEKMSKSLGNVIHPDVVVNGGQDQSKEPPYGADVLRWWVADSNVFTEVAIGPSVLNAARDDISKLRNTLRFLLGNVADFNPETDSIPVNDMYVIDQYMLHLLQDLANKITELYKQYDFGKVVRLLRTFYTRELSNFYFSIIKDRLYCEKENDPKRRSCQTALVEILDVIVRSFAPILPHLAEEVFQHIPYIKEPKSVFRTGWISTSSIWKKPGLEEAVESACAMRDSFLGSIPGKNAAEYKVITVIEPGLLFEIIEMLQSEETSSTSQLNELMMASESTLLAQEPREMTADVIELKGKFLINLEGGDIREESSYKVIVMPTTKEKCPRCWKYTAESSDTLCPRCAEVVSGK

[4] = molecular target: Serine/threonine-protein kinase N3 (Homo sapiens, UniProt Q6P5Z2)
Serine/threonine-protein kinase N3, sequence (Q6P5Z2 whole entry): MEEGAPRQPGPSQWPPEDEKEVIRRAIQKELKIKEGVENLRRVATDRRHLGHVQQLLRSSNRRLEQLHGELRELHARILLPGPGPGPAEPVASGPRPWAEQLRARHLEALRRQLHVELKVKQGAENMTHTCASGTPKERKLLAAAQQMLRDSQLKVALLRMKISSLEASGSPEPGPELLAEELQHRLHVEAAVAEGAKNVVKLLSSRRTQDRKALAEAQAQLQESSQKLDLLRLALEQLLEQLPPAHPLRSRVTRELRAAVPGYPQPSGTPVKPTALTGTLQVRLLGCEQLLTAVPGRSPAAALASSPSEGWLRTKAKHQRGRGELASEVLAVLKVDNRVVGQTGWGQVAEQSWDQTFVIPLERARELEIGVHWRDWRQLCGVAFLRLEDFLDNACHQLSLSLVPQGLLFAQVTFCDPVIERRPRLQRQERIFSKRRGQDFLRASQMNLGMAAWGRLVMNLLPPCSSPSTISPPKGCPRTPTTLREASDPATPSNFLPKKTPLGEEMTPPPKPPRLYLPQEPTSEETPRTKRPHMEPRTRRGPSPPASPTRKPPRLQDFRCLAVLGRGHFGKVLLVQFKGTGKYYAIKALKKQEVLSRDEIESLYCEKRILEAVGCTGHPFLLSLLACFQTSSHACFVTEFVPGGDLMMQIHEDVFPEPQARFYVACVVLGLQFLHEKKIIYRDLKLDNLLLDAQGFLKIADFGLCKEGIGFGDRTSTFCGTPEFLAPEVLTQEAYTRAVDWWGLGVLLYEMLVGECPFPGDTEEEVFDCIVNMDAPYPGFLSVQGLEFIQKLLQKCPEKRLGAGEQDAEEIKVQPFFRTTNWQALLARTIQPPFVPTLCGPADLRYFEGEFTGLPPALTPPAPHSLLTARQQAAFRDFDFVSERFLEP

[5] = molecular target: Serine/threonine-protein kinase 38 (Homo sapiens, UniProt Q15208)
Serine/threonine-protein kinase 38, sequence (Q15208 whole entry): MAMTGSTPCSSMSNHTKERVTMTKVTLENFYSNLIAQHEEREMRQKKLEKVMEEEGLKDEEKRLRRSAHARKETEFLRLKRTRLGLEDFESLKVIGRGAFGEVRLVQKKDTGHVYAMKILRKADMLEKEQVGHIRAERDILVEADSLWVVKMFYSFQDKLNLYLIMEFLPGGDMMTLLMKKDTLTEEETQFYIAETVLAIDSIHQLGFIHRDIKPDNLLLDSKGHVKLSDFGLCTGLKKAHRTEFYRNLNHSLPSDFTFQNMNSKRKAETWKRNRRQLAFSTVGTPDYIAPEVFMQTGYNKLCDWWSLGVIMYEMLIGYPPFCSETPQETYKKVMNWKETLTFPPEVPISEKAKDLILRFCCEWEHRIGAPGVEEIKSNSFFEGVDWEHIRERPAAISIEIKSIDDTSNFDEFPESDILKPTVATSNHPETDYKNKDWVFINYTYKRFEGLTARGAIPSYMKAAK

[6] = molecular target: Serine/threonine-protein kinase pim-2 (Homo sapiens, UniProt Q9P1W9)
Serine/threonine-protein kinase pim-2, sequence (Q9P1W9 whole entry): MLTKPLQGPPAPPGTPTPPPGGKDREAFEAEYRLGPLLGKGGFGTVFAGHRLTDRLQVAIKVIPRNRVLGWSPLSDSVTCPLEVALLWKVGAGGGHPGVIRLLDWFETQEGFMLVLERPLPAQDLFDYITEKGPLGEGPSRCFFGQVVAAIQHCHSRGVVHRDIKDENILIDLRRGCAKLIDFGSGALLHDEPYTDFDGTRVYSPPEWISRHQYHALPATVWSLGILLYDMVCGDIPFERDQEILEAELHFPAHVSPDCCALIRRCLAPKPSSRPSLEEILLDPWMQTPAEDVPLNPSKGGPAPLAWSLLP

[7] = molecular target: T4, Electron transfer flavoprotein subunit beta (Homo sapiens, UniProt P38117)
T4 sequence (P38117 whole entry): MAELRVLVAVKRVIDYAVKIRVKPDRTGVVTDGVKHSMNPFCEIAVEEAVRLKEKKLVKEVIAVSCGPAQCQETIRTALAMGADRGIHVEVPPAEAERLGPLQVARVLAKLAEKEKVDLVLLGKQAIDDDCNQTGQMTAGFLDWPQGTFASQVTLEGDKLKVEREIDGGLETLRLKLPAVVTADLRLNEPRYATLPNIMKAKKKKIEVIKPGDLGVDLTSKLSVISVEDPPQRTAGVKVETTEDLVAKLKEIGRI

[8] = molecular target: Cyclin-dependent kinase 10 (Homo sapiens, UniProt Q15131)
Cyclin-dependent kinase 10, sequence (Q15131 whole entry): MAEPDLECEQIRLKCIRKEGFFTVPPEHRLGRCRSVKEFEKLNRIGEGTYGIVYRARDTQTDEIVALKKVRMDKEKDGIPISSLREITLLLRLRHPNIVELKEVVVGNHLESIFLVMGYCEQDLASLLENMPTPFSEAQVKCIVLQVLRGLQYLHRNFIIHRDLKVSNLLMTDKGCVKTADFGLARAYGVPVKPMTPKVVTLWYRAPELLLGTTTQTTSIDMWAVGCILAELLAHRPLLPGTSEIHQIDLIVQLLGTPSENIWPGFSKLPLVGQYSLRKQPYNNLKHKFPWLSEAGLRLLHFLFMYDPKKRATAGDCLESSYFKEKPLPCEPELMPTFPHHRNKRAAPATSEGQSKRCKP

Measured: Kd
Note: in the data inactive means no Kd found up to 30 µM.

CN1C/C=C/CCOc2cccc(c2)-c2ccnc(n2)Nc2cccc(c2)C1 [ZOTIRACICLIB]
inactive: [1] > 30 µM | [2] > 30 µM | [3] > 30 µM

C[C@@H](N)c1ccc(C(=O)Nc2ccnc3[nH]ccc23)cc1 [Y-39983]
inactive: [4] > 30 µM | [1] > 30 µM | [5] > 30 µM | [3] > 30 µM

CCNC(=O)C#Cc1ccc2c(c1)NC(=O)/C2=C(\Nc1ccc(CN(C)C)cc1)c1ccccc1
inactive: [1] > 30 µM | [5] > 30 µM | [2] > 30 µM

CC(C)c1cc(CNc2nc(Nc3cc(C4CC4)[nH]n3)cc(N3CCN(C)CC3)n2)on1 [XL-228]
inactive: [6] > 30 µM | [1] > 30 µM

COc1cc(Nc2ncc3c(n2)-c2ccc(Cl)cc2C(c2c(F)cccc2OC)=NC3)ccc1C(=O)O [ALISERTIB]
inactive: [4] > 30 µM | [1] > 30 µM | [7] > 30 µM | [8] > 30 µM

CCS(=O)(=O)c1cccc(-c2cc(C(=O)NC3CCN(C)CC3)c(C)c3[nH]c4ncc(C)cc4c23)c1 [TAK-901]
inactive: [6] > 30 µM | [1] > 30 µM | [2] > 30 µM

N#CC[C@H](C1CCCC1)n1cc(-c2ncnc3[nH]ccc23)cn1 [RUXOLITINIB]
inactive: [7] > 30 µM | [3] > 30 µM

CCS(=O)(=O)N1CCN(c2ccc(Nc3ncc(C(N)=O)c(NC4CC4)n3)cc2)CC1 [Cerdulatinib Hydrochloride]
inactive: [6] > 30 µM | [1] > 30 µM | [2] > 30 µM

O=C1NC(=O)[C@@H](c2cn3c4c(cccc24)CCC3)[C@@H]1c1c[nH]c2ccccc12 [TIVANTINIB]
inactive: [6] > 30 µM | [1] > 30 µM | [7] > 30 µM | [2] > 30 µM

Cc1nc(NC(=O)N2CCC[C@H]2C(N)=O)sc1-c1ccnc(C(C)(C)C(F)(F)F)c1 [ALPELISIB]
inactive: [7] > 30 µM | [3] > 30 µM

CNC(=O)c1nn(C)c2c1C(C)(C)Cc1cnc(Nc3ccc(N4CCN(C)CC4)cc3)nc1-2 [MILCICLIB]
inactive: [6] > 30 µM | [4] > 30 µM | [1] > 30 µM | [2] > 30 µM

Cn1ncc(Cl)c1-c1cc(C(=O)N[C@H](CN)Cc2ccc(F)c(F)c2)oc1Cl [UPROSERTIB]
inactive: [6] > 30 µM | [5] > 30 µM | [7] > 30 µM

CC(=O)NCC(=O)N1[C@@H]2CC[C@H]1c1ccc(Nc3ncc(C(F)(F)F)c(NC4CCC4)n3)cc12 [PF-03814735]
inactive: [1] > 30 µM

CCCCCCCCCCCCCCCCCCOP(=O)([O-])OC1CC[N+](C)(C)CC1 [PERIFOSINE]
inactive: [6] > 30 µM | [1] > 30 µM | [7] > 30 µM | [3] > 30 µM

C[C@H]1CNCCCN1S(=O)(=O)c1cccc2cncc(F)c12
inactive: [2] > 30 µM

C[C@@H](Oc1cc(C(=O)Nc2ccc(C(=O)N3CCN(C)CC3)cc2)nnc1N)c1c(Cl)ccc(F)c1Cl
inactive: [6] > 30 µM

Cc1csc(-c2nnc(Nc3ccc(Oc4ncccc4-c4ccnc(N)n4)cc3)c3ccccc23)c1 [AMG-900]
inactive: [6] > 30 µM | [5] > 30 µM | [7] > 30 µM | [3] > 30 µM

CNC(=O)c1ccccc1Sc1ccc2c(/C=C/c3ccccn3)n[nH]c2c1 [AXITINIB]
inactive: [4] > 30 µM | [1] > 30 µM | [7] > 30 µM | [2] > 30 µM

C[C@@H](Oc1cc(-n2cnc3ccc(CN4CCN(C)CC4)cc32)sc1C(N)=O)c1ccccc1C(F)(F)F [GSK-461364]
inactive: [4] > 30 µM | [1] > 30 µM | [7] > 30 µM | [2] > 30 µM | [3] > 30 µM

CN1CCN(CCOc2cc(OC3CCOCC3)c3c(Nc4c(Cl)ccc5c4OCO5)ncnc3c2)CC1 [SARACATINIB]
inactive: [6] > 30 µM | [4] > 30 µM | [1] > 30 µM | [2] > 30 µM | [8] > 30 µM

CNC(=O)c1cc(Oc2ccc(NC(=O)Nc3cc(C(C)(C)C)nn3-c3ccc4ncccc4c3)c(F)c2)ccn1 [REBASTINIB]
inactive: [6] > 30 µM | [4] > 30 µM | [2] > 30 µM

C=CC(=O)N1CCC[C@H](n2c(=O)n(-c3ccc(Oc4ccccc4)cc3)c3c(N)ncnc32)C1
inactive: [6] > 30 µM | [4] > 30 µM | [1] > 30 µM | [7] > 30 µM

COc1cc2c(Nc3ccc(Cl)c(Cl)c3F)ncnc2cc1OC[C@@H]1C[C@@H]2CN(C)C[C@@H]2C1 [TESEVATINIB]
inactive: [4] > 30 µM | [1] > 30 µM | [3] > 30 µM

O=c1[nH]ccc2cc(OC3CCNCC3)ccc12 [SAR-407899 FREE BASE]
inactive: [6] > 30 µM | [1] > 30 µM | [5] > 30 µM | [7] > 30 µM | [2] > 30 µM | [3] > 30 µM

CNC(=O)c1cccc2cc(Oc3ccnc4cc(OCC5(N)CC5)c(OC)cc34)ccc12 [LUCITANIB]
inactive: [6] > 30 µM | [4] > 30 µM | [7] > 30 µM | [3] > 30 µM

NC(=O)Nc1cc(-c2cccc(F)c2)sc1C(=O)N[C@H]1CCCNC1 [AZD-7762]
inactive: [6] > 30 µM | [1] > 30 µM | [7] > 30 µM | [8] > 30 µM

O=C(NOCCO)c1cc(CN2OCCCC2=O)c(F)c(F)c1Nc1ccc(I)cc1F [RO-4987655]
inactive: [4] > 30 µM | [1] > 30 µM | [7] > 30 µM | [2] > 30 µM | [3] > 30 µM

FC(F)(F)c1ccc(/C=C/c2nc(COc3ccc(CCCCn4ccnn4)cc3)co2)cc1 [MUBRITINIB]
inactive: [6] > 30 µM | [8] > 30 µM
